Experimental data as given in ChEMBL document CHEMBL5715954, “Silencing c-Myc translation as a therapeutic strategy through targeting PI3Kδ and CK1ε in hematological malignancies” (Blood, 2017).

What was measured:
Parameters in all cases: scale not given: the % may be the effect or the level left
[1] = target: T1, Serine/threonine-protein kinase DCLK2 (Homo sapiens) (UniProt Q8N568); experiment: Inhibition of human DCAMKL2 assessed as enzyme activity at 1 uM using KKLNRTLSFAEPG as substrate preincubated for 20 mins followed by [gamma-33P]-ATP addition and measured after 120 mins by radiometric Hot-SpotSM Kinase assay relative to control
T1 sequence (whole entry): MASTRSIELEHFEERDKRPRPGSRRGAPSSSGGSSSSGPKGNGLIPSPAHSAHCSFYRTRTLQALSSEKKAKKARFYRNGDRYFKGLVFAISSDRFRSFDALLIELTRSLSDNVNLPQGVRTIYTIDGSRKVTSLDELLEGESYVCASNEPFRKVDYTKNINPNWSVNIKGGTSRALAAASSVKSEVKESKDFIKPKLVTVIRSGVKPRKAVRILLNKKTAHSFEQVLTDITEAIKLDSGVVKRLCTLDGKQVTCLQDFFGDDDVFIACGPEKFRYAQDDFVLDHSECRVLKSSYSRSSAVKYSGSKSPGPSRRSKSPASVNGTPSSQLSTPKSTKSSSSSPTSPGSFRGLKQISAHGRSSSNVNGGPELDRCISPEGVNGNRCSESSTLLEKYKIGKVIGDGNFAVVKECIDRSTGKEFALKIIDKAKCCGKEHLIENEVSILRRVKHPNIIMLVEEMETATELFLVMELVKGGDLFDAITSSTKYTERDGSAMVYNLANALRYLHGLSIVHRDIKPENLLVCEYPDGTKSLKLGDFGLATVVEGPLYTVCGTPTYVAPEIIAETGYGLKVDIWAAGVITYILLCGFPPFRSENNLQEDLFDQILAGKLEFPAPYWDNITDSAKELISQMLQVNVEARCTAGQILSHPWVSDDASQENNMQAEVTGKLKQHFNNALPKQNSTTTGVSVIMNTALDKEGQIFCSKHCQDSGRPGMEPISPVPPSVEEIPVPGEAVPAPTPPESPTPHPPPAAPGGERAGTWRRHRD

[2] = target: Angiopoietin-1 receptor (Homo sapiens) (UniProt Q02763); experiment: Inhibition of human TIE2 assessed as enzyme activity at 1 uM using poly[Glu:Tyr] (4:1) as substrate preincubated for 20 mins followed by [gamma-33P]-ATP addition and measured after 120 mins by radiometric Hot-SpotSM Kinase assay relative to control
[3] = target: Mitogen-activated protein kinase 9 (Homo sapiens) (UniProt P45984); experiment: Inhibition of human JNK2-alpha2 assessed as enzyme activity at 1 uM using ATF2 as substrate preincubated for 20 mins followed by [gamma-33P]-ATP addition and measured after 120 mins by radiometric Hot-SpotSM Kinase assay relative to control
[4] = target: T2, Testis-specific serine/threonine-protein kinase 3 (Homo sapiens) (UniProt Q96PN8); experiment: Inhibition of human TSSK3 assessed as enzyme activity at 1 uM using KKKVSRSGLYRSPSMPENLNRPR as substrate preincubated for 20 mins followed by [gamma-33P]-ATP addition and measured after 120 mins by radiometric Hot-SpotSM Kinase assay relative to control
T2 sequence (whole entry): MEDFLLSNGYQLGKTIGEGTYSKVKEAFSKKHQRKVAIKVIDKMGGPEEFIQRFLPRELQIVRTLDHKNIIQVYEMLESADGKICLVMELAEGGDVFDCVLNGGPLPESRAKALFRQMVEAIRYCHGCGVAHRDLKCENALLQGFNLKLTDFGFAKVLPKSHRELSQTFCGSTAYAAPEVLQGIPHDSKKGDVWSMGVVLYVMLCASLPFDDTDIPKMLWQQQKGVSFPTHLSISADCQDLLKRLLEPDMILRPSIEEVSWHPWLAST

[5] = target: Ribosomal protein S6 kinase beta-2 (Homo sapiens) (UniProt Q9UBS0); experiment: Inhibition of human p70S6Kb assessed as enzyme activity at 1 uM using KKRNRTLTK as substrate preincubated for 20 mins followed by [gamma-33P]-ATP addition and measured after 120 mins by radiometric Hot-SpotSM Kinase assay relative to control
[6] = target: T3, MAP kinase-activated protein kinase 5 (Homo sapiens) (UniProt Q8IW41); experiment: Inhibition of human MAPKAPK5 assessed as enzyme activity at 1 uM using KKLNRTLSVA as substrate preincubated for 20 mins followed by [gamma-33P]-ATP addition and measured after 120 mins by radiometric Hot-SpotSM Kinase assay relative to control
T3 sequence (whole entry): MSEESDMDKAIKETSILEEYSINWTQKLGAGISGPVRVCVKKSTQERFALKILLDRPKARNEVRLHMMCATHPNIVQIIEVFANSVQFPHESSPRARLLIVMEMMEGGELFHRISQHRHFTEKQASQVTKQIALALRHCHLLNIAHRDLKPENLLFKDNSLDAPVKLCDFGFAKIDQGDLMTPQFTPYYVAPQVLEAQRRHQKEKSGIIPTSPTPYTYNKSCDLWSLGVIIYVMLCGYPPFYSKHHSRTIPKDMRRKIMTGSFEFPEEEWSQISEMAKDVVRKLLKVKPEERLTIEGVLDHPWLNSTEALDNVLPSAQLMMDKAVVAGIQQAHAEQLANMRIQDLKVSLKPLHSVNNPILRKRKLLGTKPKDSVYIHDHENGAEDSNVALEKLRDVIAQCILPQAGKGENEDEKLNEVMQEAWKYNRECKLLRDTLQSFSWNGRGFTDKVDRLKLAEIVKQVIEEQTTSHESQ

Homo sapiens = species on record: Homo sapiens; experiment: Inhibition of human CDK2/cyclin A assessed as enzyme activity at 1 uM using RB Protein as substrate preincubated for 20 mins followed by [gamma-33P]-ATP addition and measured after 120 mins by radiometric Hot-SpotSM Kinase assay relative to control
[7] = target: CDK1/Cyclin E (Homo sapiens) (UniProt P06493+P24864); experiment: Inhibition of human CDK1/cyclin E assessed as enzyme activity at 1 uM using RB Protein as substrate preincubated for 20 mins followed by [gamma-33P]-ATP addition and measured after 120 mins by radiometric Hot-SpotSM Kinase assay relative to control; type: protein-complex assay
[8] = target: Dual specificity protein kinase CLK1 (Homo sapiens) (UniProt P49759); experiment: Inhibition of human CLK1 assessed as enzyme activity at 1 uM using myelin basic protein as substrate preincubated for 20 mins followed by [gamma-33P]-ATP addition and measured after 120 mins by radiometric Hot-SpotSM Kinase assay relative to control
Sequence of Dual specificity protein kinase CLK1 (Homo sapiens) (P49759 whole entry, looked up): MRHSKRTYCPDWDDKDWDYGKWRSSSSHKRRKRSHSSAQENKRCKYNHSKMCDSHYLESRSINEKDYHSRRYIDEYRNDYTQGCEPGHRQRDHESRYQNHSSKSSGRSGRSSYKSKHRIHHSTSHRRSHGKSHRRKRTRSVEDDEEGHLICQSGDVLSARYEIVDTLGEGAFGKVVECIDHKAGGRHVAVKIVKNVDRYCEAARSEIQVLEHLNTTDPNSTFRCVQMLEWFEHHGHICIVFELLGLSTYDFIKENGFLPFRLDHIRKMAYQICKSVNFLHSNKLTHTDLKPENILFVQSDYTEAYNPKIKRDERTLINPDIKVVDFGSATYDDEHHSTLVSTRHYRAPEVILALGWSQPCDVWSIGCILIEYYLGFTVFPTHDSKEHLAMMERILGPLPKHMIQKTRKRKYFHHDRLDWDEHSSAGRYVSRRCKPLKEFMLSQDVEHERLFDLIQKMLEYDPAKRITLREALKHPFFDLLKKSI

Sequence of Angiopoietin-1 receptor (Homo sapiens) (Q02763 whole entry): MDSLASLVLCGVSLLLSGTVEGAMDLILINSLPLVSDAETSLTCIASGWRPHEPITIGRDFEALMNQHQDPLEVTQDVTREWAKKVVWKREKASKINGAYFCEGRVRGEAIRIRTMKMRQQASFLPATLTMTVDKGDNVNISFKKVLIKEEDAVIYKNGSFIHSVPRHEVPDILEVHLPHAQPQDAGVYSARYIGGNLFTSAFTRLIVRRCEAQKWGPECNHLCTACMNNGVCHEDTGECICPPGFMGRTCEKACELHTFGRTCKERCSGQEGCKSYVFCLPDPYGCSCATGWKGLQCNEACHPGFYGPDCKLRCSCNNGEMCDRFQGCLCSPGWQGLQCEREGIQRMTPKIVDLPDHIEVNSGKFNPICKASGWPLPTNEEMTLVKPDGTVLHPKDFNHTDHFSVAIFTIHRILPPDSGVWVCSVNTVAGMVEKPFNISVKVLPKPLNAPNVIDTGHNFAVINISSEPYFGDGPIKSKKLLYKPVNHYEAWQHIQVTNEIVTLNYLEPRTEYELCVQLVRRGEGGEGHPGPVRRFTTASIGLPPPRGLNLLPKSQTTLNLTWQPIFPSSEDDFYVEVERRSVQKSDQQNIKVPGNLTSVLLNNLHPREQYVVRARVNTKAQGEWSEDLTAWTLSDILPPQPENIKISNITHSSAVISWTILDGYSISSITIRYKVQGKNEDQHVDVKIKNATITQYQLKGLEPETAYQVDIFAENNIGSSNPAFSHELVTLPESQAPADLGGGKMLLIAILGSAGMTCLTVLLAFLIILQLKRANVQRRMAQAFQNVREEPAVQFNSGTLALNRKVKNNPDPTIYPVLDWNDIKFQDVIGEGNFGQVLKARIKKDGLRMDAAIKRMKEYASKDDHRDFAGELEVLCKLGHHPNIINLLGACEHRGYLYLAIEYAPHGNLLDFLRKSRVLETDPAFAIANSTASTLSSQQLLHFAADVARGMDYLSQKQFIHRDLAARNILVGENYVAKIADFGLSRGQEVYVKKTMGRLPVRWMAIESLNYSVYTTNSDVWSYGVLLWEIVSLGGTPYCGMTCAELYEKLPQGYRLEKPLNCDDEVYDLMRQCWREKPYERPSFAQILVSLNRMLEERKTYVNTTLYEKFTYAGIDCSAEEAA
Sequence of Ribosomal protein S6 kinase beta-2 (Homo sapiens) (Q9UBS0 whole entry): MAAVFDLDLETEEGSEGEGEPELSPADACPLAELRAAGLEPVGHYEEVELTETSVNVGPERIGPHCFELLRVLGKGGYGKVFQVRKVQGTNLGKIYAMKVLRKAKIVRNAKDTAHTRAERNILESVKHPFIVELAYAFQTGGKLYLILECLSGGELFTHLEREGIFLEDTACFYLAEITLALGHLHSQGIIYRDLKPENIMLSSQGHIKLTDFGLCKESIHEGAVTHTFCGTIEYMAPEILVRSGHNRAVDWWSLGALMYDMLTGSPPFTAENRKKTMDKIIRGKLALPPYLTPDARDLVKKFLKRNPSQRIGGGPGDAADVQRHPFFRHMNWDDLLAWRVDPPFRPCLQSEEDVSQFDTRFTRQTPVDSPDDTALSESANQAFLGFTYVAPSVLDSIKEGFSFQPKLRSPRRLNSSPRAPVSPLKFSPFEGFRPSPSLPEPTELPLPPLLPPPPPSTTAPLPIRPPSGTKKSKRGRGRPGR
Sequence of Mitogen-activated protein kinase 9 (Homo sapiens) (P45984 whole entry, looked up): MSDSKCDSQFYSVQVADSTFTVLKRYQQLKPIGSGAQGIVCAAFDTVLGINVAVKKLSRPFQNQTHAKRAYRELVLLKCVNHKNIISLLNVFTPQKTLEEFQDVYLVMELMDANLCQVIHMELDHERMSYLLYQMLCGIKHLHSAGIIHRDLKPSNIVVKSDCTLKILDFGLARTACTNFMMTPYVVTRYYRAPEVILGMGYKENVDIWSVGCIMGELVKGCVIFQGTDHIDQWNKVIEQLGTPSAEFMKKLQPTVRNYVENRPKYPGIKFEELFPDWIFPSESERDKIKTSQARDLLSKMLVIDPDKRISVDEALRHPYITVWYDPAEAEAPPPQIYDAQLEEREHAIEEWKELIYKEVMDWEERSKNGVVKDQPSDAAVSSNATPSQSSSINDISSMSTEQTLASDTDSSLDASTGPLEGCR
Sequence of CDK1/Cyclin E (Homo sapiens) (P06493 whole entry, looked up): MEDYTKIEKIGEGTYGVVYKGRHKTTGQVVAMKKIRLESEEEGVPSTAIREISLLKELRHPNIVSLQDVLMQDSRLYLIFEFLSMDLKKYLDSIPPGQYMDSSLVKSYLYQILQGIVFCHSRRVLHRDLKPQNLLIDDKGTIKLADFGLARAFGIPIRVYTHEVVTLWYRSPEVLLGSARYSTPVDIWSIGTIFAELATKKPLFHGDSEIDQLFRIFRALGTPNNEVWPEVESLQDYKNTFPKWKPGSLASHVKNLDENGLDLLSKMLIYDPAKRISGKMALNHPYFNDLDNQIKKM
Sequence of CDK1/Cyclin E (Homo sapiens) (P24864 whole entry, looked up): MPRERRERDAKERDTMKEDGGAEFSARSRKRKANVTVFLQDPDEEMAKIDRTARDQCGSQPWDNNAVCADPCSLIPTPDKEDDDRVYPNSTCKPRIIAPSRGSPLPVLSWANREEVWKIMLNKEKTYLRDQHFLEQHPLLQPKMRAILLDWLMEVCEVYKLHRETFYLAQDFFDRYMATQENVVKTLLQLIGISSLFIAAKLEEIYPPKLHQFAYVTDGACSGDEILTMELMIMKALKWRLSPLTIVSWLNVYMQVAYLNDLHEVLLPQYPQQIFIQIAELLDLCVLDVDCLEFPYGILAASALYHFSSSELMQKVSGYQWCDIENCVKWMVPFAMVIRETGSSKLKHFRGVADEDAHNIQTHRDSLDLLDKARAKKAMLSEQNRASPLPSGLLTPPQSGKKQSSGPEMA

SMILES	Activity [1]	Activity [2]	Activity [3]	Activity [4]	Activity [5]	Activity [6]	Activity (Homo sapiens)	Activity [7]	Activity [8]
CC[C@H](Nc1ncnc2[nH]cnc12)c1nc2cccc(F)c2c(=O)n1-c1ccccc1	94.7%	97.9%	96.8%	102%	104%	99.5%	100%	88.5%	97.3%
C[C@H](Nc1ncnc2nc[nH]c12)c1cc2cccc(Cl)c2c(=O)n1-c1ccccc1	94.1%	97.3%	97.8%	109%	96.8%	99%	101%	91.5%	106%
CC(C)Oc1ccc(-c2nn([C@@H](C)c3oc4ccc(F)cc4c(=O)c3-c3cccc(F)c3)c3ncnc(N)c23)cc1F [UMBRALISIB]	94.7%	92%	97.3%	107%	105%	104%	104%	86%	103%
